Reference: patent publication US10131702B2, “Glucagon-GLP-1-GIP triple agonist compounds” (priority 2013, dated 2018)
Read-outs that look alike come from different tables or passages of the source. Peptide text beside a SMILES is read from it.

Tests used:
Type in all cases: cell-based
human GCG R = target: T1, human GCG R (Homo sapiens, UniProt P47871); assay: cAMP induction in HEK293 cells expressing human GCG R (AlphaScreen cAMP kit); conditions: average EC50, cAMP, HEK293 cells expressing human GCG R, read-out: GCG R (EC50 in nM)
T1 construct: expressed in transfected cells
T1 sequence (P47871 26-477): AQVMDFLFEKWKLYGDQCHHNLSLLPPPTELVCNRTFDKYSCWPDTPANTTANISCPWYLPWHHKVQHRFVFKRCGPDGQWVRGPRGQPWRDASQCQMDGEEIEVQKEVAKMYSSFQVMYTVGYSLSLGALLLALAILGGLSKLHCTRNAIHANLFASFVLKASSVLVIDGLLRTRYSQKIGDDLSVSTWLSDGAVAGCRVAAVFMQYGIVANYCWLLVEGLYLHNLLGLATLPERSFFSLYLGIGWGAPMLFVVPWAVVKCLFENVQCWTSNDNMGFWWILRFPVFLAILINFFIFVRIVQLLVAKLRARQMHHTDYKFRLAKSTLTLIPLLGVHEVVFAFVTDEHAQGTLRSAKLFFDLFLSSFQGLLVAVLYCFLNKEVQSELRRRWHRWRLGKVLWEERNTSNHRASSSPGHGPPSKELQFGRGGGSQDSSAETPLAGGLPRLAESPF

human GIP R = target: T2, human GIP R (Homo sapiens, UniProt P48546); assay: cAMP induction in HEK293 cells expressing human GIP R (AlphaScreen cAMP kit); conditions: read-out: GIP R (EC50 in nM)
T2 construct: expressed in transfected cells
T2 sequence (P48546 22-466): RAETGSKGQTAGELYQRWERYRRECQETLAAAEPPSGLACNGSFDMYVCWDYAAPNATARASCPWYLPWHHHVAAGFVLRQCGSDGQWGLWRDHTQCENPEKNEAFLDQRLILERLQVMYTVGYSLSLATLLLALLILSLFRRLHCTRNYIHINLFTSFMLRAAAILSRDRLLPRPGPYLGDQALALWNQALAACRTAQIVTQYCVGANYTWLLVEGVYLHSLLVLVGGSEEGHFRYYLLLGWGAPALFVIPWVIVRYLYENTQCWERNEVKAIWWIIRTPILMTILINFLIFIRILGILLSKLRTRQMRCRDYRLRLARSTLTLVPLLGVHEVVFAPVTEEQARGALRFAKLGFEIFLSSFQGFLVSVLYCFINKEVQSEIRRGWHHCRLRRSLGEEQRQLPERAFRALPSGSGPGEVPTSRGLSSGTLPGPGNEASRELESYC
Procedure: (§1) Briefly, HEK293 cells expressing the human GIP R, GLP-1 R or GCG R (stable cell lines generated through transfection of the cDNA for human GIP R, GLP-1 R or GCG R and selection of stable clones) were seeded at 30,000 cells/well in 96-well microtiter plates coated with 0.01% poly-L-lysine, and grown for 1 day in culture in 200 μl growth medium (DMEM, 10% FCS, Penicillin (100 IU/ml), Streptomycin (100 μg/ml)). On the day of analysis, growth medium was removed and the cells were washed once with 150 μl Tyrode's buffer (Tyrode's Salts (9.6 g/l), 10 mM HEPES, pH 7.4). […] The Assay buffer was removed and cells are lysed in 80 μl Lysis buffer (0.1% w/v BSA, 5 mM HEPES, 0.3% v/v Tween-20) per well. From each well 10 μl of lysed cells were transferred to a 384-well plate and mixed with 15 μl bead-mix (1 Unit/15 μl anti-cAMP Acceptor Beads, 1 Unit/15 μl Donor Beads, and 1 Unit/15 μl Biotinylated cAMP in Assay Buffer). The plates were mixed and incubated in the dark for an hour at room temperature before measuring using an Envision™ plate reader (Perkin-Elmer).
(§2) The resulting cAMP curves were plotted as absolute cAMP concentrations (nM) over log (test compound concentration) and analyzed using the curve fitting program XLfit.
(§3) Parameters calculated to describe both the potency as well as the agonistic activity of each test compound on the receptors were:
(§4) EC50, a concentration resulting in a half-maximal elevation of cAMP levels, reflecting the potency of the test compound.

human GLP-1 R = target: T3, human GLP-1 R (Homo sapiens, UniProt P43220); assay: cAMP induction in HEK293 cells expressing human GLP-1 R (AlphaScreen cAMP kit)
T3 construct: expressed in transfected cells
T3 sequence (P43220 24-463): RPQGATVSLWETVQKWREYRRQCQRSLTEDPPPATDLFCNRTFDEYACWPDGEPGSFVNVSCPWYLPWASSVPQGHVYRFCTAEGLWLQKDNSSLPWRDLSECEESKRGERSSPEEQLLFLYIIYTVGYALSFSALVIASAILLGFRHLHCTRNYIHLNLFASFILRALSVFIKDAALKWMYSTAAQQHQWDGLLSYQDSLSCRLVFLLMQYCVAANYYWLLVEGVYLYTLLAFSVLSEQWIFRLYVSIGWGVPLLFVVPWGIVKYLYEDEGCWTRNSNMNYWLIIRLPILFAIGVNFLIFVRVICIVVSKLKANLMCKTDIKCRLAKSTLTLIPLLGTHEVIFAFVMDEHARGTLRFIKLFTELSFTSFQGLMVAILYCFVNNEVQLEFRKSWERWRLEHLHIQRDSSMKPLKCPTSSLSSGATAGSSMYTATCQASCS
Procedure: as §1, §2, §3, §4

[1] = Table 2b (most comprehensive data), average EC50, cAMP

SMILES: CC[C@H](C)[C@H](NC(=O)[C@H](CO)NC(=O)[C@H](Cc1ccc(O)cc1)NC(=O)[C@H](CC(=O)O)NC(=O)[C@H](CO)NC(=O)[C@@H](NC(=O)[C@H](Cc1ccccc1)NC(=O)[C@@H](NC(=O)CNC(=O)[C@H](CCC(N)=O)NC(=O)C(C)(C)NC(=O)[C@@H](N)Cc1ccc(O)cc1)[C@@H](C)O)[C@@H](C)O)C(=O)N[C@@H](Cc1ccc(O)cc1)C(=O)N[C@@H](CC(C)C)C(=O)N[C@@H](CC(=O)O)C(=O)N[C@@H](CO)C(=O)N[C@@H](CCCCN)C(=O)N[C@@H](C)C(=O)N[C@@H](C)C(=O)N[C@@H](Cc1c[nH]cn1)C(=O)N[C@@H](CC(=O)O)C(=O)N[C@@H](Cc1ccccc1)C(=O)N[C@H](C(=O)N[C@@H](CCC(=O)O)C(=O)N[C@@H](Cc1c[nH]c2ccccc12)C(=O)N[C@@H](CC(C)C)C(=O)N[C@@H](CC(C)C)C(=O)N[C@@H](CO)C(=O)N[C@@H](C)C(=O)NCC(=O)N1CCC[C@H]1C(=O)N[C@@H](CO)C(=O)N[C@@H](CO)C(=O)NCC(=O)N[C@@H](C)C(=O)N1CCC[C@H]1C(=O)N1CCC[C@H]1C(=O)N1CCC[C@H]1C(=O)N[C@@H](CO)C(N)=O)C(C)C [Compound 13] (HELM PEPTIDE1{Y.[Aib].Q.G.T.F.T.S.D.Y.S.I.Y.L.D.S.K.A.A.H.D.F.V.E.W.L.L.S.A.G.P.S.S.G.A.P.P.P.S.[am]}$$$$V2.0)
- EC50 (human GCG R; Table 2): 0.24 nM
- EC50 (human GIP R; Table 2, average EC50, cAMP): 0.083 nM
- EC50 (human GIP R; [1]): 0.01 nM
- EC50 (human GLP-1 R; Table 2, average EC50, cAMP, HEK293 cells expressing human GLP-1 R, read-out: GLP1 R (EC50 in nM)): 0.0099 nM

SMILES: CC[C@H](C)[C@H](NC(=O)[C@H](CO)NC(=O)[C@H](Cc1ccc(O)cc1)NC(=O)[C@H](CC(=O)O)NC(=O)[C@H](CO)NC(=O)[C@@H](NC(=O)[C@H](Cc1ccccc1)NC(=O)[C@@H](NC(=O)CNC(=O)[C@H](CCC(N)=O)NC(=O)C(C)(C)NC(=O)[C@@H](N)Cc1ccc(O)cc1)[C@@H](C)O)[C@@H](C)O)C(=O)N[C@@H](Cc1ccc(O)cc1)C(=O)N[C@@H](CC(C)C)C(=O)N[C@@H](CC(=O)O)C(=O)N[C@@H](CCCCN)C(=O)N[C@@H](CCCCNC(=O)CC[C@H](NC(=O)CCCCCCCCCCCCCCCCC(=O)O)C(=O)O)C(=O)N[C@@H](C)C(=O)N[C@@H](CCC(N)=O)C(=O)N[C@@H](CCCNC(=N)N)C(=O)N[C@@H](C)C(=O)N[C@@H](Cc1ccccc1)C(=O)N[C@H](C(=O)N[C@@H](CCC(=O)O)C(=O)N[C@@H](Cc1c[nH]c2ccccc12)C(=O)N[C@@H](CC(C)C)C(=O)N[C@@H](CC(C)C)C(=O)N[C@@H](C)C(=O)N[C@@H](CCC(N)=O)C(=O)NCC(=O)N1CCC[C@H]1C(=O)N[C@@H](CO)C(=O)N[C@@H](CO)C(=O)NCC(=O)N[C@@H](C)C(=O)N1CCC[C@H]1C(=O)N1CCC[C@H]1C(=O)N1CCC[C@H]1C(=O)N[C@@H](CO)C(N)=O)C(C)C [Compound 34] (HELM PEPTIDE1{Y.[Aib].Q.G.T.F.T.S.D.Y.S.I.Y.L.D.K.K.A.Q.R.A.F.V.E.W.L.L.A.Q.G.P.S.S.G.A.P.P.P.S.[am]}|PEPTIDE2{[O=C(O)CCCCCCCCCCCCCCCCC(=O)[*:2]].[gGlu]}$PEPTIDE1,PEPTIDE2,17:R3-2:R2$$$V2.0)
- EC50 (human GCG R; Table 2b (most comprehensive data)): 0.11 nM
- EC50 (human GIP R; [1]): 0.007 nM
- EC50 (human GLP-1 R): 0.0066 nM
